From article PMC12075751 (Nature Communications, 2025)

Legend:
[1] = tested on: CTX-1; experiment: ELISA of serum CTX-1, OVX mice, oral gavage study; format: in vivo, mouse
[2] = tested on: OVX mice; experiment: H&E staining of bone marrow adipose tissue, OVX mice, oral gavage study; format: in vivo, mouse; conditions: BMS vs ALD
[3] = tested on: PINP; experiment: ELISA of serum PINP, OVX mice, oral gavage study; format: in vivo, mouse; conditions: vs Model
[4] = tested on: FABP4; experiment: ELISA of serum FABP4, OVX mice, oral gavage study; format: in vivo, mouse; conditions: 28 days daily oral gavage, ALD […], BMS 10 mg/kg
[5] = tested on: FABP4; experiment: IHC of FABP4 in tibial bone marrow, OVX mice, oral gavage study; format: in vivo, mouse; conditions: BMS vs ALD
[6] = tested on: TRAP, c-Fos, NFATc1; experiment: Western Blotting of OCs differentiation marker proteins; format: cell-based, mouse; conditions: OCs + BMS
[7] = PK analysis in SD rats; format: in vivo, rat
[8] = tested on: OVX mice; experiment: Three-point bending test on femoral midshaft, OVX mice, oral gavage study; format: in vivo, mouse; conditions: oral administration of BMS
[9] = tested on: OVX mice; format: in vivo, mouse; conditions: BMS 10 mg/kg oral
[10] = tested on: OVX mice; format: in vivo, mouse
[11] = tested on: OVX mice; format: in vivo, mouse; conditions: BMS 10 mg/kg oral; remark: listed apart in the source
[12] = tested on: human BMSCs; experiment: Osteoblastic differentiation of BMSCs, Alizarin Red staining; format: cell-based; conditions: FABP4 25 or 50 ng/mL, with BMS 5 or 10 μM, 21-day induction
[13] = tested on: OCs; experiment: F-actin staining of OCs; format: cell-based, mouse; conditions: vs group with only RANKL and M-CSF
[14] = tested on: BMMs; experiment: OCs formation from BMMs; format: cell-based, mouse; conditions: 25 ng/mL FABP4 during RANKL induction of BMMs
[15] = tested on: OCs; experiment: Bone resorption activity of mature OCs on bovine bone slices; format: cell-based, mouse; conditions: SEM
[16] = tested on: intracellular Ca2+ in OCs; experiment: Ca2+ concentration detection in OCs; format: cell-based, mouse; conditions: OCs + FABP4 (25 ng/mL)
[17] = OVX mice, BMS 10 mg/kg oral, 28 days

Q: For `NCCCC(O)(P(=O)(O)O)P(=O)(O)O` [ALD, alendronate sodium], which “bone resorption (serum CTX-1)” value [1] is on record?
A: reduced

Q: And the “bone marrow fat tissue (H&E staining)” value [2]?
A: no significant difference

Q: What about the “bone formation (serum PINP)” value [3] of the same molecule?
A: little effect

Q: What about the “serum FABP4 levels vs Model group” value [4] of the same molecule?
A: significantly reduced

Q: And the “FABP4 protein expression in bone marrow (IHC)” value [5]?
A: no significant difference

Q: Which “bone resorption (serum CTX-1)” value [1] does the source give for `CCc1c(-c2ccccc2)c(-c2ccccc2)nn1-c1ccccc1-c1cccc(OCC(=O)O)c1` [BMS309403] here?
A: reduced

Q: And the “TRAP, c-Fos, and NFATc1 protein levels” value [6]?
A: suppression

Q: What about the Cl ([7]; IV 2.0 mg/kg, G1-Mean (n = 3)) of the same molecule?
A: 11.523 mL/min/kg

Q: And the “MRT(0-∞)” value ([7]; IV 2.0 mg/kg, G1-Mean (n = 3))?
A: 0.84 h

Q: What about the Vz ([7]; IV 2.0 mg/kg, G1-Mean (n = 3)) of the same molecule?
A: 1.73416 L/kg

Q: And the Cmax ([7]; IV 2.0 mg/kg, G1-Mean (n = 3), listed as BMS, 2 mg/kg)?
A: 7094.95 ng/mL

Q: And the “AUC(0-t)” value ([7]; PO 10.0 mg/kg, G2-Mean (n = 3))?
A: 5527.36 ng·h/mL

Q: What about the T1/2 ([7]; PO 10.0 mg/kg, G2-Mean (n = 3), listed as BMS, 10 mg/kg) of the same molecule?
A: 3.16 h

Q: And the “bone stiffness, femoral midshaft” value [8]?
A: improved

Q: What about the “elastic modulus, femoral midshaft” value [8] of the same molecule?
A: improved

Q: What about the “BMD, L5 lumbar vertebra” value [9] of the same molecule?
A: significantly improving

Q: And the “Tb.N, L5 lumbar vertebra” value [9]?
A: significantly improving

Q: And the “Tb.Th, L5 lumbar vertebra” value [9]?
A: significantly improving

Q: What about the “bone volume/total volume (BV/TV), L5 lumbar vertebra” value [9] of the same molecule?
A: significantly improving

Q: And the “trabecular separation (Tb.Sp), L5 lumbar vertebra” value [9]?
A: significantly improving

Q: And the “efficacy in femur compared to ALD” value ([10]; BMS 10 mg/kg, 7.7 times the ALD dose ([…]), oral)?
A: did not achieve the same efficacy

Q: And the “femoral BMD” value [10, 17]?
A: increased

Q: What about the “trabecular thickness (Tb.Th), distal femur” value [10, 17] of the same molecule?
A: increased

Q: And the “trabecular number (Tb.N), distal femur” value ([10]; OVX mice, BMS 10 mg/kg oral, 28 days, listed as BMS)?
A: increased

Q: And the “bone resorption in vivo (TRAP staining of tibia sections)” value [11]?
A: inhibitory effect

Q: What about the “osteogenic differentiation capacity of BMSCs (Alizarin Red staining)” value [12] of the same molecule?
A: neither the FABP4 protein nor its inhibitor affected

B1: FABP4: recombinant FABP4 protein (MCE, cat#HY-P70293) (protein, UniProt P04117 2-132, looked up)
Fatty acid-binding protein, …: CDAFVGTWKLVSSENFDDYMKEVGVGFATRKVAGMAKPNMIISVNGDLVTIRSESTFKNTEISFKLGVEFDEITADDRKVKSIITLDGGALVQVQKWDGKSTTIKRKRDGDKLVVECVMKGVTSTRVYERA
Q: For B1, which “F-actin / bone skeleton structure of OCs” value [13] is on record?
A: more regular and distinct bone skeleton structure with abundant F-actin

Q: And the “formation of OCs (TRAP staining)” value [14]?
A: significantly promoted the formation of OCs

Q: And the “bone resorption by mature OCs on bovine bone slices” value [15]?
A: enhanced bone resorption

Q: What about the “intracellular calcium levels in OCs” value [16] of the same molecule?
A: significant increase

Q: And the “osteogenic differentiation capacity of BMSCs (Alizarin Red staining)” value [12]?
A: neither the FABP4 protein nor its inhibitor affected
